{"source": "paper PMC10812672", "about": "“Short Antimicrobial Peptide Derived from the Venom Gland Transcriptome of Pamphobeteus verdolaga Increases Gentamicin Susceptibility of Multidrug-Resistant Klebsiella pneumoniae” (Antibiotics, 2023)", "key": {"[1]": {"test_system": "Gram-positive and Gram-negative bacteria representative of the ESKAPE group", "type": "cell-based", "conditions": "average over Gram-positive and Gram-negative ATCC strains of the ESKAPE group", "description": "(§1) The nine AMPs identified in the initial screening were evaluated at concentrations between 1.56–200 µM, against E. coli ATCC® 25922, S. aureus ATCC® 29213, E. faecalis ATCC® 49532, P. aeruginosa ATCC® 9027, and K. pneumoniae ATCC® BAA-1705 (Supplementary Figures S2–S6). […] Only PvAMP66 and PvAMP172 reached the MBC for S. aureus at 50 µM and 100 µM, respectively (Table 2).\n(§2) The evaluation of the antimicrobial activity of the peptides was conducted using the CLSI’s broth microdilution method for bacterial susceptibility testing. For the screening phase, peptides were evaluated at a single 30 μM concentration, in triplicate and in three independent assays, against the E. coli ATCC® 8739, E. coli ATCC® 25922, S. aureus ATCC® 6538, or S. aureus ATCC® 29213 reference USP and CLSI strains. […] Following this, the bacteria were suspended in Mueller-Hinton broth up to a concentration of approximately 1.50 × 10^8 CFU/mL, as measured by optical density at 600 nm between 0.06 to 0.11 (0.5 McFarland standard), in a Multiskan SkyHigh spectrophotometer (ThermoFisher Scientific, Waltham, MA, USA). […] The plate was incubated for 24 h at 37 °C (BE 500, Memmert GmbH, Büchenbach, Germany) and optical density was measured at 600 nm in a Multiskan SkyHigh spectrophotometer (ThermoFisher Scientific, Waltham, MI, USA). […]"}, "[2]": {"test_system": "human red blood cells (hRBCs)", "assay": "Hemolytic activity", "type": "cell-based", "description": "The cytotoxicity of PvAMP66 was assessed in vitro against human red blood cells (hRBCs) and human peripheral blood mononuclear cells (hPBMCs) using concentrations of 1.56–200 µM. At the highest concentration, PvAMP66 induced 60% hemolysis in human erythrocytes (Figure 3a), and a decrease in viability of approximately 40% in the hPBMCs (Figure 3b). […] Ratios between CC50 or HC50, and the IC50 values registered for the bacterial strains, indicate that PvAMP66 has higher selectivity for interacting with prokaryotic membranes (Table 4).\nHuman red blood cells (hRBCs) were obtained from the Blood Bank of the School of Microbiology of the University of Antioquia in Medellín, Colombia. Ten mL of hRBCs were diluted in 10 mL of PSB pH 7.20, mixed by inversion, and centrifuged five times at 4 °C, 1000× g for 10 min (Universal 32 R, Hettich Group, Kirchlengern, Westphalia, Germany). […] Then, the supernatant was transferred to 96-well flat bottom culture plates without transferring of the RBC pellet, and hemoglobin release was measured at 420 nm (Multiskan SkyHigh, ThermoFisher Scientific, Waltham, MA, USA). All peptides were evaluated in three independent assays. The hemolysis percentage was calculated as follows: Hemolysis %=AbsPEPTIDE−Median AbsPBS/Median AbsTRITON−Median AbsPBS×100"}, "[3]": {"test_system": "K. pneumoniae ATCC® BAA-1705", "type": "cell-based, Klebsiella pneumoniae", "description": "as §1, §2"}}, "note": "Ends that are not written are not given here."}
{"substance": "WKKIKKFF-NH2 [PvAMP66]", "values": [{"measurement": "average MIC", "setting": "[1]", "value": 46.87, "unit": "µM"}, {"measurement": "HC50 (Hemolytic Concentration 50)", "setting": "[2]; 10% v/v hRBC in PBS pH 7.20, 1 h 37 °C, hemoglobin at 420 nm, 1.56–200 µM, logistic regression, 95% CI in parentheses, three independent assays", "value": "132.96 (118.82–151.21) µM"}, {"measurement": "hemolysis", "setting": "[2]; human erythrocytes, highest concentration (200 µM), 1 h 37 °C", "value": 60, "unit": "%"}, {"measurement": "MIC", "setting": "[3]; 1.56–200 µM, 24 h 37 °C, visual inspection", "value": 100, "unit": "µM"}, {"measurement": "IC50", "setting": "[3]; growth inhibition OD600, 95% confidence interval in parentheses", "value": 45.5, "unit": "µM"}]}
